Measured values as given in patent US10597388B2, “Pyridazinone herbicides” (FMC CORPORATION, priority 2014, dated 2020).

Assays:
Test in all cases: Test D controlled growth environment herbicide test, pre- and postemergence
Assay type in all cases: in vivo
[1] = system: bluegrass (annual bluegrass, Poa annua)
Method in brief: (§1)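 Pre-emergence: seeds sown in silt loam soil were sprayed with compound in a non-phytotoxic solvent mix containing surfactant. Post-emergence: plants at 2 to 18 cm (1- to 4-leaf stage) in peat moss/vermiculite medium got the same formulation. Visual 0–100 rating versus controls after 14 to 21 d.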

[2] = system: barley, spring (spring barley, Hordeum vulgare)
Method in brief: as §1

kochia (Kochia scoparia) = system: kochia (Kochia scoparia)
Method in brief: as §1

[3] = system: chamomile (scentless chamomile, Matricaria inodora)
Method in brief: as §1

[4] = system: lambsquarters (Chenopodium album)
Method in brief: as §1

[5] = system: canarygrass (Phalaris minor)
Method in brief: as §1

[6] = system: barley, winter (winter barley, Hordeum vulgare)
Method in brief: as §1

[7] = system: galium (catchweed bedstraw, Galium aparine)
Method in brief: as §1

[8] = system: speedwell (bird's-eye speedwell, Veronica persica)
Method in brief: as §1

[9] = system: bromegrass, downy (downy bromegrass, Bromus tectorum)
Method in brief: as §1

[10] = system: oat, wild (wild oat, Avena fatua)
Method in brief: as §1

[11] = system: mustard, wild (wild mustard, Sinapis arvensis)
Method in brief: as §1

[12] = system: foxtail, green (green foxtail, Setaria viridis)
Method in brief: as §1

[13] = Postemergence, 31 g ai/ha, scale 0 to 100 (0 no effect, 100 complete control)
[14] = Postemergence, 125 g ai/ha, visual rating on scale 0 (no effect) to 100 (complete control), 14 to 21 d
[15] = Postemergence, 250 g ai/ha, scale 0 to 100 (0 no effect, 100 complete control)
[16] = Preemergence, 62 g ai/ha, scale 0 to 100 (0 no effect, 100 complete control)
[17] = Preemergence, 125 g ai/ha, scale 0 to 100 (0 no effect, 100 complete control)
[18] = Preemergence, 250 g ai/ha, scale 0 to 100 (0 no effect, 100 complete control)
[19] = postemergence, 62 g ai/ha, scale 0 to 100, 0 no effect, 100 complete control

Cc1cc(C)c2sc(C)c(-c3c(OC(=O)OC(C)C)c(C)nn(C)c3=O)c2c1 [Compound 67]
Bluegrass plant response rating [1, 13]: 5
Plant response rating, Bluegrass [1, 14]: 20
Plant response rating, Bluegrass [1, 15]: 30
Plant response rating (scale of 0 to 100), Bluegrass ([1]; Preemergence, 31 g ai/ha): 0
Plant response rating, Bluegrass [1, 16]: 0
Plant response rating, Bluegrass [1, 17]: 20
Plant response rating, Bluegrass [1, 18]: 50
Plant response rating, Bluegrass [1, 19]: 15
Barley, Spring plant response rating [2, 13]: 0
Plant response rating, Barley, Spring [2, 14]: 10
Plant response rating, Barley, Spring [2, 15]: 20
Plant response rating (scale of 0 to 100), Barley, Spring ([2]; Preemergence, 31 g ai/ha): 0
Plant response rating, Barley, Spring [2, 16]: 0
Plant response rating, Barley, Spring [2, 17]: 0
Plant response rating, Barley, Spring [2, 18]: 0
Plant response rating, Barley, Spring [2, 19]: 5
Kochia plant response rating (kochia (Kochia scoparia); [13]): 10
Plant response rating, Kochia (kochia (Kochia scoparia); [14]): 40
Plant response rating, Kochia (kochia (Kochia scoparia); [15]): 50
Plant response rating (scale of 0 to 100), Kochia (kochia (Kochia scoparia); Preemergence, 31 g ai/ha): 0
Plant response rating, Kochia (kochia (Kochia scoparia); [16]): 0
Plant response rating, Kochia (kochia (Kochia scoparia); [17]): 0
Plant response rating, Kochia (kochia (Kochia scoparia); [18]): 0
Plant response rating, Kochia (kochia (Kochia scoparia); [19]): 35
Chamomile plant response rating [3, 13]: 95
Plant response rating, Chamomile [3, 14]: 100
Plant response rating, Chamomile [3, 15]: 100
Plant response rating (scale of 0 to 100), Chamomile ([3]; Preemergence, 31 g ai/ha): 95
Plant response rating, Chamomile [3, 16]: 95
Plant response rating, Chamomile [3, 17]: 100
Plant response rating, Chamomile [3, 18]: 100
Plant response rating, Chamomile [3, 19]: 100
Lambsquarters plant response rating [4, 13]: 90
Plant response rating, Lambsquarters [4, 14]: 100
Plant response rating, Lambsquarters [4, 15]: 100
Plant response rating (scale of 0 to 100), Lambsquarters ([4]; Preemergence, 31 g ai/ha): 95
Plant response rating, Lambsquarters [4, 16]: 100
Plant response rating, Lambsquarters [4, 17]: 100
Plant response rating, Lambsquarters [4, 18]: 100
Plant response rating, Lambsquarters [4, 19]: 100
Canarygrass plant response rating [5, 13]: 75
Plant response rating, Canarygrass [5, 14]: 85
Plant response rating, Canarygrass [5, 15]: 95
Plant response rating (scale of 0 to 100), Canarygrass ([5]; Preemergence, 31 g ai/ha): 40
Plant response rating, Canarygrass [5, 16]: 85
Plant response rating, Canarygrass [5, 17]: 90
Plant response rating, Canarygrass [5, 18]: 95
Plant response rating, Canarygrass [5, 19]: 85
Barley, Winter plant response rating [6, 13]: 0
Plant response rating, Barley, Winter [6, 14]: 5
Plant response rating, Barley, Winter [6, 15]: 10
Plant response rating (scale of 0 to 100), Barley, Winter ([6]; Preemergence, 31 g ai/ha): 0
Plant response rating, Barley, Winter [6, 16]: 0
Plant response rating, Barley, Winter [6, 17]: 0
Plant response rating, Barley, Winter [6, 18]: 0
Plant response rating, Barley, Winter [6, 19]: 0
Galium plant response rating [7, 13]: 90
Plant response rating, Galium [7, 14]: 100
Plant response rating, Galium [7, 15]: 100
Plant response rating (scale of 0 to 100), Galium ([7]; Preemergence, 31 g ai/ha): 0
Plant response rating, Galium [7, 16]: 10
Plant response rating, Galium [7, 17]: 35
Plant response rating, Galium [7, 18]: 70
Plant response rating, Galium [7, 19]: 100
Speedwell plant response rating [8, 13]: 70
Plant response rating, Speedwell [8, 14]: 75
Plant response rating, Speedwell [8, 15]: 100
Plant response rating (scale of 0 to 100), Speedwell ([8]; Preemergence, 31 g ai/ha): 80
Plant response rating, Speedwell [8, 16]: 75
Plant response rating, Speedwell [8, 17]: 100
Plant response rating, Speedwell [8, 18]: 100
Plant response rating, Speedwell [8, 19]: 75
Bromegrass, Downy plant response rating [9, 13]: 60
Plant response rating, Bromegrass, Downy [9, 14]: 65
Plant response rating, Bromegrass, Downy [9, 15]: 70
Plant response rating (scale of 0 to 100), Bromegrass, Downy ([9]; Preemergence, 31 g ai/ha): 25
Plant response rating, Bromegrass, Downy [9, 16]: 35
Plant response rating, Bromegrass, Downy [9, 17]: 35
Plant response rating, Bromegrass, Downy [9, 18]: 70
Plant response rating, Bromegrass, Downy [9, 19]: 60
Oat, Wild plant response rating [10, 13]: 95
Plant response rating, Oat, Wild [10, 14]: 100
Plant response rating, Oat, Wild [10, 15]: 100
Plant response rating (scale of 0 to 100), Oat, Wild ([10]; Preemergence, 31 g ai/ha): 70
Plant response rating, Oat, Wild [10, 16]: 75
Plant response rating, Oat, Wild [10, 17]: 80
Plant response rating, Oat, Wild [10, 18]: 90
Plant response rating, Oat, Wild [10, 19]: 98
Mustard, Wild plant response rating [11, 13]: 25
Plant response rating, Mustard, Wild [11, 14]: 40
Plant response rating, Mustard, Wild [11, 15]: 65
Plant response rating (scale of 0 to 100), Mustard, Wild ([11]; Preemergence, 31 g ai/ha): 0
Plant response rating, Mustard, Wild [11, 16]: 0
Plant response rating, Mustard, Wild [11, 17]: 0
Plant response rating, Mustard, Wild [11, 18]: 0
Plant response rating, Mustard, Wild [11, 19]: 35
Foxtail, Green plant response rating [12, 13]: 80
Plant response rating, Foxtail, Green [12, 14]: 100
Plant response rating, Foxtail, Green [12, 15]: 100
Plant response rating (scale of 0 to 100), Foxtail, Green ([12]; Preemergence, 31 g ai/ha): 15
Plant response rating, Foxtail, Green [12, 16]: 80
Plant response rating, Foxtail, Green [12, 17]: 85
Plant response rating, Foxtail, Green [12, 18]: 85
Plant response rating, Foxtail, Green [12, 19]: 90
